Values of other authors, collected in patent US8586760B2, “Aminothiazole modulators of beta-3-adrenoreceptor” (Auspex Pharmaceuticals, Inc., priority 2009, dated 2013).

Legend:
CYP2D6 = CYP2D6 (Homo sapiens, UniProt P10635)
CYP3A4 = CYP3A4 (Homo sapiens, UniProt P08684)
[1] = poor metabolizers compared to extensive metabolizers

Sequence of CYP2D6 (P10635 whole entry): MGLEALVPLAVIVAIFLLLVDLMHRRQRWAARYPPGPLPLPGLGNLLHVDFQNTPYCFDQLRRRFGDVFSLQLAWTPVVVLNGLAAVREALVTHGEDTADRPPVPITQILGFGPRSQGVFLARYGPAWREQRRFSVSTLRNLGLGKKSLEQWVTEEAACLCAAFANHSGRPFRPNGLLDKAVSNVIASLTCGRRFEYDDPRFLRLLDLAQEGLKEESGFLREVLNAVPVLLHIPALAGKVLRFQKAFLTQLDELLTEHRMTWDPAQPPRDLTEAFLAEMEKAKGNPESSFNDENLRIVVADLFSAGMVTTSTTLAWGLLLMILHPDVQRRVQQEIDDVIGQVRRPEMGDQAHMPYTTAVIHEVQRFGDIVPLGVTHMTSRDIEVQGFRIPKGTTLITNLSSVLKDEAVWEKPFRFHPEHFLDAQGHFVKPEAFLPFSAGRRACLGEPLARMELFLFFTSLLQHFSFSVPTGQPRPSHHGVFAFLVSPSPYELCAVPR
Sequence of CYP3A4 (P08684 whole entry): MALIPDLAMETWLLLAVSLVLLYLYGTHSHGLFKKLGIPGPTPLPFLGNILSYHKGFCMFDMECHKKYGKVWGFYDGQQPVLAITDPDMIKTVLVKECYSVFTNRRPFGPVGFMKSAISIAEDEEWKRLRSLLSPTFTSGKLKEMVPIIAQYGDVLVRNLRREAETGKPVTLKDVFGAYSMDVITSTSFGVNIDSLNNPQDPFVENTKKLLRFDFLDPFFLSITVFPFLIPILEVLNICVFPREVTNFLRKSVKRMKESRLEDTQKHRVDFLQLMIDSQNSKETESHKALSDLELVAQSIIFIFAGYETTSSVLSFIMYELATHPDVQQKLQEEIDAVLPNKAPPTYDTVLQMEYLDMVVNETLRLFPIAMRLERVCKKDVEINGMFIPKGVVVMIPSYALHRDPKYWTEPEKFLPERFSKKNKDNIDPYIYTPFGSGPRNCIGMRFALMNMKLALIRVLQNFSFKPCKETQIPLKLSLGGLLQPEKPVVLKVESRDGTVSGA

## Nc1nc(CC(=O)Nc2ccc(CCNC[C@H](O)c3ccccc3)cc2)cs1 [Mirabegron, 2-amino-N-[4-[2-[[(2R)-2-hydroxy-2-phenylethyl]amino]ethyl]phenyl]-4-thiazoleacetamide]
CYP2D6
  metabolism by CYP2D6: oxidative cleavage
Poor metabolizers
  Intersubject variability: generally higher
[1]
  Mean Cmax: slightly higher
  mean AUC: slightly higher
  t1/2: longer
CYP3A4
  metabolism by CYP3A4: oxidative cleavage
